Measurements from article PMC7918793, “5-Methoxybenzothiophene-2-Carboxamides as Inhibitors of Clk1/4: Optimization of Selectivity and Cellular Potency” (Molecules, 2021).

What was measured:
Assay in all cases: SelectScreen kinase profiling
Format in all cases: biochemical
DYRK3 = molecular target: T1, DYRK3 (Homo sapiens, UniProt O43781)
T1 sequence (O43781 1-588): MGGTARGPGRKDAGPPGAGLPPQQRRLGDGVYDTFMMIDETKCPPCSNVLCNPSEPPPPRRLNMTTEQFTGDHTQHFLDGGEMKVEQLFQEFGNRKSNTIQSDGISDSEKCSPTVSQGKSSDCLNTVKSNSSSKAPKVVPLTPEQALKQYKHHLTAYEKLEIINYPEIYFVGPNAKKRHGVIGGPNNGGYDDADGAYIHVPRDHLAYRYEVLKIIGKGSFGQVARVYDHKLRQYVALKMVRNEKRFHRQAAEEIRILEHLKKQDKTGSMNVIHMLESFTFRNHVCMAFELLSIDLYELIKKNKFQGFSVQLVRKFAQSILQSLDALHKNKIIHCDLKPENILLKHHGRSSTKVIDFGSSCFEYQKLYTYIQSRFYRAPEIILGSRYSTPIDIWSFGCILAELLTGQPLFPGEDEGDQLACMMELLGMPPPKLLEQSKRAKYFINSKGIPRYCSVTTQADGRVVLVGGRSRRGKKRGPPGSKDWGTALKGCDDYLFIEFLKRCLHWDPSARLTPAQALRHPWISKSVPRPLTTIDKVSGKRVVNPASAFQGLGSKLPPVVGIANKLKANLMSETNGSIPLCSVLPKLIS
Protocol: (§1) Active human Clk1 and Clk2 were purchased from Life Technologies (Catalog No. PV3315 and PV4279, respectively). RS repeat substrate peptide for Clk1 ([…]) was custom synthesized at the Department of Medical Biochemistry and Molecular Biology, Saarland University, Homburg, Germany. Kinase Inhibition assays for Clk1 and Clk2 were performed as described previously, in the presence of 15 μM ATP [20]. The calculated IC50 values are representative of at least two independent determinations performed in duplicates. The larger panel of kinases shown in Table 4 was screened by the SelectScreen Kinase Profiling Service, Thermo Fisher Scientific, Paisley, UK.

DYRK2 = molecular target: T2, DYRK2 (Homo sapiens, UniProt Q92630)
T2 sequence (Q92630 1-601): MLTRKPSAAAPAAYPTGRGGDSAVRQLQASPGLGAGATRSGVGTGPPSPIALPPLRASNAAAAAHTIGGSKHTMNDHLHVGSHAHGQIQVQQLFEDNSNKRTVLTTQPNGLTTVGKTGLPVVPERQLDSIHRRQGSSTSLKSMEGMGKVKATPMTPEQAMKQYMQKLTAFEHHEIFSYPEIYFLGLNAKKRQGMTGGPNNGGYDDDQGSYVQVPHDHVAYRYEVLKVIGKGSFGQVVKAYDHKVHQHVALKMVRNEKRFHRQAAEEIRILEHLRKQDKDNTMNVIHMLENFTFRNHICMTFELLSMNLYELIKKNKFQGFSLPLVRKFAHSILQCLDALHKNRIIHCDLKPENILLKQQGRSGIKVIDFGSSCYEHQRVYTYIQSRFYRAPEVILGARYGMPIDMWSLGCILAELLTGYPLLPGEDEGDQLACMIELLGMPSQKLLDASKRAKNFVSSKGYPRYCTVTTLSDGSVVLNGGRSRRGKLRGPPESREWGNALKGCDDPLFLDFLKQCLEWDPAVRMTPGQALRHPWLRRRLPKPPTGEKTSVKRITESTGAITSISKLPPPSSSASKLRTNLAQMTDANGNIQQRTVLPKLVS
Protocol: as §1

CDK5/p25 = CDK5/p25 (Homo sapiens, UniProt Q00535)
Protocol: as §1

CK2 α1 = CK2 α1 (Homo sapiens, UniProt P68400)
Protocol: as §1

CK1 γ2 = CK1 γ2 (Homo sapiens, UniProt P78368)
Protocol: as §1

MLCK2 = MLCK2 (Homo sapiens, UniProt Q9H1R3)
Protocol: as §1

Chain of CK1 γ2 (P78368 whole entry): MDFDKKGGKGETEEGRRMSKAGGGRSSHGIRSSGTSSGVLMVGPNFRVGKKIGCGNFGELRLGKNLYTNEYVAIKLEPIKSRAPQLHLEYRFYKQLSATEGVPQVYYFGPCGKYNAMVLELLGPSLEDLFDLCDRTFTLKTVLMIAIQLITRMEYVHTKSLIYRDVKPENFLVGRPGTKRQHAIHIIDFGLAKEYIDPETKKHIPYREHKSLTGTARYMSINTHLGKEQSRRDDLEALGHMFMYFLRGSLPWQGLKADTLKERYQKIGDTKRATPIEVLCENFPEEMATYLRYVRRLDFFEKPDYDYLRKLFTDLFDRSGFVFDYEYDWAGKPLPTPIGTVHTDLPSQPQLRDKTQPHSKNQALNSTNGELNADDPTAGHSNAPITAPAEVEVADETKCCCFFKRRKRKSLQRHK
Chain of CK2 α1 (P68400 whole entry): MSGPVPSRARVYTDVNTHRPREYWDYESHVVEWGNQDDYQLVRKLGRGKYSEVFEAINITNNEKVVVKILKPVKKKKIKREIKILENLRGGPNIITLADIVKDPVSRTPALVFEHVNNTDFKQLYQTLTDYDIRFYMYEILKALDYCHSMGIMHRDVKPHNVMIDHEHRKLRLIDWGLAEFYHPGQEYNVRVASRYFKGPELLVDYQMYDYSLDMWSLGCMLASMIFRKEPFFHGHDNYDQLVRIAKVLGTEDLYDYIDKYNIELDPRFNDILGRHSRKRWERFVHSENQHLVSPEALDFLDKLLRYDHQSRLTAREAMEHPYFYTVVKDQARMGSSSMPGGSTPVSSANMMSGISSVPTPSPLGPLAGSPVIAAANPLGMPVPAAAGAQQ
Chain of CDK5/p25 (Q00535 whole entry): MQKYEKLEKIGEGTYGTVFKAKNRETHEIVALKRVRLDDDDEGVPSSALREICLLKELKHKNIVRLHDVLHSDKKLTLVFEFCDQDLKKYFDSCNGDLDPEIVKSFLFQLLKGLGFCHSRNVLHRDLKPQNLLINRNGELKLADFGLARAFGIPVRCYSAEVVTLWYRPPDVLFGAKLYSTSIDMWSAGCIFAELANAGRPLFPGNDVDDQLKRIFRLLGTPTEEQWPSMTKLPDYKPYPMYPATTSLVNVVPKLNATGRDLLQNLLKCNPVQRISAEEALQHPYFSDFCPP
Chain of CDK5/p25 (Q15078 99-307 partner limits assumed): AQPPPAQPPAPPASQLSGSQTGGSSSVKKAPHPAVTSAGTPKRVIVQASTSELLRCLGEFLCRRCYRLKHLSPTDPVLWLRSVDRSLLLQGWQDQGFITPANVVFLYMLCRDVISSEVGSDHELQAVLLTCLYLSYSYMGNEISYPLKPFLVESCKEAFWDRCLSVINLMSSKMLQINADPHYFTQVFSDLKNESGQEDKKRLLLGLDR

With `COc1ccc2sc(C(=O)N(C)Cc3cc(F)cc(F)c3)cc2c1` [Compound 10b, N-Methyl-N-(3,5-difluorobenzyl)-5-methoxybenzothiophene-2-carboxamide] the inhibition at 1 µM (DYRK3) was 3%, the inhibition at 1 µM (DYRK2) was 19% and the inhibition at 1 µM (CDK5/p25) was 3%. It also gave an inhibition at 1 µM (CK2 α1) of 5%, an inhibition at 1 µM (CK1 γ2) of 2% and an inhibition at 1 µM (MLCK2) of 3%.
